# Source: patent US20230159509A1 (Amathus Therapeutics, Inc., priority 2020, published 2023)
# Target: T1, TRAP1 enzyme (Homo sapiens, UniProt Q12931)
# T1 construct: 150 nM Trap1 enzyme was incubated with various concentrations of the test compound
# T1 sequence (Q12931 60-704): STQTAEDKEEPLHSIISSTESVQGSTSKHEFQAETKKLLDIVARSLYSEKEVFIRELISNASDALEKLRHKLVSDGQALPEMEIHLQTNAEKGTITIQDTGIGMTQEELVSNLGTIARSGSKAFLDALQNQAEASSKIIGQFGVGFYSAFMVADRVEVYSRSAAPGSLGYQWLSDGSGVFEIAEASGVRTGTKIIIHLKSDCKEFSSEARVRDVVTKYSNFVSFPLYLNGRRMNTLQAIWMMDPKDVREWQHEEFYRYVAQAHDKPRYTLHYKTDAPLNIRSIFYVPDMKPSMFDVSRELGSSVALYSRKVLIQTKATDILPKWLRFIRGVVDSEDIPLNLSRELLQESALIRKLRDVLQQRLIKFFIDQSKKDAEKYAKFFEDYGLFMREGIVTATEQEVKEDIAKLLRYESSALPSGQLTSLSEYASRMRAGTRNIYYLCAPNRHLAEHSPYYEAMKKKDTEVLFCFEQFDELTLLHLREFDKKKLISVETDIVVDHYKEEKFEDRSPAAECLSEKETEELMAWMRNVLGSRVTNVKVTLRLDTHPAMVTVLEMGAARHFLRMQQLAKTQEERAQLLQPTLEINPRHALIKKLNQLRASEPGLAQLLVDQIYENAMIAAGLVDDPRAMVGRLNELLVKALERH
# Experiment: ADP Glo assay of TRAP1 ATPase activity
# Format: biochemical
# Settings: 1 h; compound concentration 50 μM; read-out: ADP-Glo Percent Activation at 50 μM
# Method in brief: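 ADP-Glo luminescence quantifying ADP from 150 nM TRAP1 preincubated 30 min at 37° C with compound (0.79–100 μM), then 20 μM ATP for 60 min at 37° C. Buffer: 25 mM Pipes pH 7.5, 40 mM KCl, 0.05 mM MgCl2, EGTA, BSA, detergents. ADP from ATP/ADP standard curve; Emax and EC50 from sigmoidal fit.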
row,activation at 50 µM,Structure (SMILES)
1,151 to 180%,COc1ncc(NC(=O)c2ccc(C(F)(F)F)s2)cc1S(=O)(=O)Nc1c(C)cccc1C [compound 2644]
2,151 to 180%,COc1ncc(NC(=O)c2cc(C)nn2C(F)F)cc1S(=O)(=O)Nc1c(C)cccc1C [compound 2646]
3,151 to 180%,COc1ncc(NC(=O)c2scnc2C(F)(F)F)cc1S(=O)(=O)Nc1c(C)cccc1C [compound 2649]
4,120 to 150%,COc1ncc(NC(=O)c2cscn2)cc1S(=O)(=O)Nc1c(C)cccc1C [compound 2650]
5,181 to 352%,COc1ncc(NC(=O)c2ccnn2CC(F)(F)F)cc1S(=O)(=O)Nc1c(C)cccc1C [compound 2651]
6,151 to 180%,COc1ncc(NC(=O)c2ccc(N3CCOCC3)cn2)cc1S(=O)(=O)Nc1c(C)cccc1C [compound 2653]
7,120 to 150%,COc1ncc(NC(=O)c2scnc2C)cc1S(=O)(=O)Nc1c(C)cccc1C [compound 2654]
8,181 to 352%,COc1ncc(NC(=O)c2ccc(N3CCOCC3)c(F)c2)cc1S(=O)(=O)Nc1c(C)cccc1C [compound 2655]
9,181 to 352%,COc1ncc(NC(=O)c2ccc(-n3nc(C)nc3C)cc2)cc1S(=O)(=O)Nc1c(C)cccc1C [compound 2656]
10,181 to 352%,COc1ccnc(C(=O)Nc2cnc(OC)c(S(=O)(=O)Nc3c(C)cccc3C)c2)c1 [compound 2657]
11,120 to 150%,COc1ncc(NC(=O)c2cncs2)cc1S(=O)(=O)Nc1c(C)cccc1C [compound 2658]
12,151 to 180%,COc1ncc(NC(=O)c2nc(C(F)(F)F)cs2)cc1S(=O)(=O)Nc1c(C)cccc1C [compound 2659]
13,120 to 150%,COc1ncc(NC(=O)c2cnc(C(F)(F)F)s2)cc1S(=O)(=O)Nc1c(C)cccc1C [compound 2660]
14,151 to 180%,COc1ncc(NC(=O)c2cnc(C)s2)cc1S(=O)(=O)Nc1c(C)cccc1C [compound 2661]
15,120 to 150%,COc1ncc(NC(=O)c2ccc(OCC(F)(F)F)cc2)cc1S(=O)(=O)Nc1c(C)cccc1C [compound 2662]
16,151 to 180%,COc1ncc(NC(=O)c2cc3n(n2)CCC3)cc1S(=O)(=O)Nc1c(C)cccc1C [compound 2663]
17,120 to 150%,COCCn1ccc(C(=O)Nc2cnc(OC)c(S(=O)(=O)Nc3c(C)cccc3C)c2)n1 [compound 2665]
18,120 to 150%,COc1ncc(NC(=O)c2ccn(C)c2)cc1S(=O)(=O)Nc1c(C)cccc1C [compound 2666]
19,181 to 352%,COc1ncc(NC(=O)c2ncsc2C)cc1S(=O)(=O)Nc1c(C)cccc1C [compound 2667]
20,151 to 180%,COc1ncc(NC(=O)c2cc(NC(C)=O)ccc2Cl)cc1S(=O)(=O)Nc1c(C)cccc1C [compound 2669]
21,151 to 180%,COc1ncc(NC(=O)c2ccc(NC(C)=O)cc2C)cc1S(=O)(=O)Nc1c(C)cccc1C [compound 2670]
22,120 to 150%,COc1ncc(NC(=O)c2ccc(NC(=O)C3CC3)cc2)cc1S(=O)(=O)Nc1c(C)cccc1C [compound 2671]
23,120 to 150%,COc1ncc(NC(=O)c2ncn(C)c2C(F)(F)F)cc1S(=O)(=O)Nc1c(C)cccc1C [compound 2672]
24,181 to 352%,COc1ncc(NC(=O)c2cnn3c2CCCC3)cc1S(=O)(=O)Nc1c(C)cccc1C [compound 2673]
25,151 to 180%,COc1ncc(NC(=O)c2coc(N3CCOCC3)n2)cc1S(=O)(=O)Nc1c(C)cccc1C [compound 2674]
26,120 to 150%,CCOc1c(C(=O)Nc2cnc(OC)c(S(=O)(=O)Nc3c(C)cccc3C)c2)cnn1C [compound 2675]
27,120 to 150%,COc1ncc(NC(=O)c2ccc3c(c2)NC(=O)CC3)cc1S(=O)(=O)Nc1c(C)cccc1C [compound 2677]
28,151 to 180%,COc1ncc(NC(=O)c2cnn(C)c2C(F)(F)F)cc1S(=O)(=O)Nc1c(C)cccc1C [compound 2678]
29,120 to 150%,COCCn1nccc1C(=O)Nc1cnc(OC)c(S(=O)(=O)Nc2c(C)cccc2C)c1 [compound 2679]
